Legend:
Assay in all cases: NanoBRET CELLinib128
EPHA5 = target: T1, EPHA5 (Homo sapiens, UniProt P54756); type: binding; settings: 1 µM; 100% no effect, 0% complete tracer displacement
T1 construct: Full-length kinase ORF (Promega, Madison, WI, USA) cloned in frame with a NanoLuc-vector was transfected into HEK293T cells; host or cells: HEK293T

ABL1 = target: T2, ABL1 (Homo sapiens, UniProt P00519); type: binding; settings: 100% no effect, 0% complete tracer displacement, read-out: Tracer bound
T2 construct: Full-length kinase ORF (Promega, Madison, WI, USA) cloned in frame with a NanoLuc-vector was transfected into HEK293T cells; host or cells: HEK293T

TESK1 = target: T3, TESK1 (Homo sapiens, UniProt Q15569); type: binding; settings: 100% no effect, 0% complete tracer displacement, read-out: Tracer bound
T3 construct: Full-length kinase ORF (Promega, Madison, WI, USA) cloned in frame with a NanoLuc-vector; host or cells: HEK293T

GSK3A = GSK3A (Homo sapiens, UniProt P49840); settings: read-out: Tracer bound
EPHB1 = EPHB1 (Homo sapiens, UniProt P54762); settings: read-out: Tracer bound
YES1 = YES1 (Homo sapiens, UniProt P07947); settings: read-out: Tracer bound
Sequence of YES1 (P07947 whole entry): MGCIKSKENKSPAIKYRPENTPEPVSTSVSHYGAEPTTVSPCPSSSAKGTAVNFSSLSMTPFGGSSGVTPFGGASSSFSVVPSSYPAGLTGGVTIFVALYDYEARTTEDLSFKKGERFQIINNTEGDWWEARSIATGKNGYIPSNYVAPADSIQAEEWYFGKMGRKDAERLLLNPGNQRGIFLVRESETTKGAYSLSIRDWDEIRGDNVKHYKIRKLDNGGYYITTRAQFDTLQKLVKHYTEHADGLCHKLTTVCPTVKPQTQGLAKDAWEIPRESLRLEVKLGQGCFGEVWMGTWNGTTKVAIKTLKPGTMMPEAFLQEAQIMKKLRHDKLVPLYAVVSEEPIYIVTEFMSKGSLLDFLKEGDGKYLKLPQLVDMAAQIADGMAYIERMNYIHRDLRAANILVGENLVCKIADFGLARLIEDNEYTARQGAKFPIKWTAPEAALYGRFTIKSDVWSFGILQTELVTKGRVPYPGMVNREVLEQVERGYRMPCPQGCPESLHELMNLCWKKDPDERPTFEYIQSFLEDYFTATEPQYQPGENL

CAMK1 = CAMK1 (Homo sapiens, UniProt Q14012); settings: read-out: Tracer bound
EPHB4 = EPHB4 (Homo sapiens, UniProt P54760); settings: read-out: Tracer bound
Sequence of EPHB4 (P54760 16-987): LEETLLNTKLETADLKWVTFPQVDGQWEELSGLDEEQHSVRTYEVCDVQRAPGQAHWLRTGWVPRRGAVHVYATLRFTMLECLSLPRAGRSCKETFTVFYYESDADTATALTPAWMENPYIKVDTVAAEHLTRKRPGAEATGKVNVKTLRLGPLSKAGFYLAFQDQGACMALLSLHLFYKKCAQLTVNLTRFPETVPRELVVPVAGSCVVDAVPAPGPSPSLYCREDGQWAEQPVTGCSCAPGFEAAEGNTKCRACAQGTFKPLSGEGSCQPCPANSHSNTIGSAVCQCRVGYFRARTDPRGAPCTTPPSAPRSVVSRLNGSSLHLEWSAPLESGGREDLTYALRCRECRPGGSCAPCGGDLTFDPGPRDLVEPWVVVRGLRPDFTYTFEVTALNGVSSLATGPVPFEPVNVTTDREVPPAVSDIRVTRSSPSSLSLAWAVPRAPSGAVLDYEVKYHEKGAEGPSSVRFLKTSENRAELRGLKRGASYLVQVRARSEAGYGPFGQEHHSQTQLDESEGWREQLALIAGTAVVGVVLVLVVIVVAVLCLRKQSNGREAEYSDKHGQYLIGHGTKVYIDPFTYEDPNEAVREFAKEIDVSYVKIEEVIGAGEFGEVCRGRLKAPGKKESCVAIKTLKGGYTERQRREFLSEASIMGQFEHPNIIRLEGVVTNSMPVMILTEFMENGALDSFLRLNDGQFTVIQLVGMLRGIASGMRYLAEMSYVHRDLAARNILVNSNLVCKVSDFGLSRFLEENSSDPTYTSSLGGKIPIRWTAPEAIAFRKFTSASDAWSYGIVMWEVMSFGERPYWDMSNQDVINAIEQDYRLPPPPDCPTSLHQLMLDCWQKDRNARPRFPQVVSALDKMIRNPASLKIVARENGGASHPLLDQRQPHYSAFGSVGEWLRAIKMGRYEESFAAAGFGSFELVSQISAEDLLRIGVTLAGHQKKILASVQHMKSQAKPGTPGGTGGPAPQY

MUSK = target: T4, MUSK (Homo sapiens, UniProt O15146); type: binding; settings: 100% no effect, 0% complete tracer displacement, read-out: Tracer bound
T4 construct: Full-length kinase ORF (Promega, Madison, WI, USA) cloned in frame with a NanoLuc-vector was transfected into HEK293T cells; host or cells: HEK293T
Method in brief: (§1)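 Cellular competition format: NLuc-tagged full-length kinases in HEK293T, single 1 μM dose against tracer for 2 h at 37 °C. BRET ratio from 450 nm and 610 nm emission, scaled between tracer-only and background controls; averages with SD reported.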

FGFR4 = target: T5, FGFR4 (Homo sapiens, UniProt P22455); type: binding; settings: 100% no effect, 0% complete tracer displacement, read-out: Tracer bound
T5 construct: Full-length kinase ORF (Promega, Madison, WI, USA) cloned in frame with a NanoLuc-vector was transfected into HEK293T cells; host or cells: HEK293T
Method in brief: as §1

PHKG1 = target: T6, PHKG1 (Homo sapiens, UniProt Q16816); type: binding; settings: 100% no effect, 0% complete tracer displacement, read-out: Tracer bound
T6 construct: Full-length kinase ORF (Promega, Madison, WI, USA) cloned in frame with a NanoLuc-vector was transfected into HEK293T cells; host or cells: HEK293T
Method in brief: as §1

FGFR1 = target: T7, FGFR1 (Homo sapiens, UniProt P11362); type: binding; settings: 100% no effect, 0% complete tracer displacement, read-out: Tracer bound
T7 construct: Full-length kinase ORF (Promega, Madison, WI, USA) cloned in frame with a NanoLuc-vector was transfected into HEK293T cells; host or cells: HEK293T
Method in brief: as §1

NEK9 = target: T8, NEK9 (Homo sapiens, UniProt Q8TD19); type: binding; settings: 100% no effect, 0% complete tracer displacement, read-out: Tracer bound
T8 construct: Full-length kinase ORF (Promega, Madison, WI, USA) cloned in frame with a NanoLuc-vector was transfected into HEK293T cells; host or cells: HEK293T
Method in brief: as §1

WEE2 = target: T9, WEE2 (Homo sapiens, UniProt P0C1S8); type: binding; settings: 100% no effect, 0% complete tracer displacement, read-out: Tracer bound
T9 construct: Full-length kinase ORF (Promega, Madison, WI, USA) cloned in frame with a NanoLuc-vector; host or cells: HEK293T
T9 sequence (P0C1S8 whole entry): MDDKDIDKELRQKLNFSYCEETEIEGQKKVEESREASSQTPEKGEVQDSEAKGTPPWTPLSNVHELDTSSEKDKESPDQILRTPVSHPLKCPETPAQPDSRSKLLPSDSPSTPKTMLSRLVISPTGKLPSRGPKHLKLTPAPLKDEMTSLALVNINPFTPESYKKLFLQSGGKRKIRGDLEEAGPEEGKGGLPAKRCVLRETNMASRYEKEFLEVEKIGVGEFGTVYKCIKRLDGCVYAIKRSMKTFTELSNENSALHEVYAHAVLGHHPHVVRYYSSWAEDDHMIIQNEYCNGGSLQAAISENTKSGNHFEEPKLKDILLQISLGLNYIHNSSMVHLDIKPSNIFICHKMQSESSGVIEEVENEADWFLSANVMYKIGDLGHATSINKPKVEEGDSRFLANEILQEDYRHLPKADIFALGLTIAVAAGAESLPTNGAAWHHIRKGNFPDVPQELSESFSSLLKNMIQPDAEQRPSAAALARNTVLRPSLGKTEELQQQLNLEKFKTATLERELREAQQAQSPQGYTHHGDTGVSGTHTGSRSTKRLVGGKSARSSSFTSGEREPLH
Method in brief: as §1

MAP4K5 = target: T10, MAP4K5 (Homo sapiens, UniProt Q9Y4K4); type: binding; settings: 100% no effect, 0% complete tracer displacement, read-out: Tracer bound
T10 construct: Full-length kinase ORF (Promega, Madison, WI, USA) cloned in frame with a NanoLuc-vector was transfected into HEK293T cells; host or cells: HEK293T
Method in brief: as §1

ULK3v1 = target: T11, ULK3v1 (Homo sapiens, UniProt Q6PHR2); type: binding; settings: 1 µM; 100% no effect, 0% complete tracer displacement
T11 construct: Full-length kinase ORF (Promega, Madison, WI, USA) cloned in frame with a NanoLuc-vector; host or cells: HEK293T
T11 sequence (Q6PHR2 whole entry): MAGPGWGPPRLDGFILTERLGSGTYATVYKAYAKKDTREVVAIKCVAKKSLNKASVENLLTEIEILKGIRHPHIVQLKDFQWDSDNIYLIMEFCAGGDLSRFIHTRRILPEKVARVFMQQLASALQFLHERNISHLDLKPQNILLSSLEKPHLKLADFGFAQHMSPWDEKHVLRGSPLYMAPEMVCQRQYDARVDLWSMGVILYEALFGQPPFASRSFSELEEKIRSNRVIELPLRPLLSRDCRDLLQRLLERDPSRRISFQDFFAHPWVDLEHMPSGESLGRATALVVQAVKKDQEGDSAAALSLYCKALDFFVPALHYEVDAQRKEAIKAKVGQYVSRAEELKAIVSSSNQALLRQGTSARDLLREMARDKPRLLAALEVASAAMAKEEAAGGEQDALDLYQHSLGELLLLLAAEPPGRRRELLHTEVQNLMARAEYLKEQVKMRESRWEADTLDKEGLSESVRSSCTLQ
Method in brief: as §1

BRSK1 = target: T12, BRSK1 (Homo sapiens, UniProt Q8TDC3); type: binding; settings: 100% no effect, 0% complete tracer displacement, read-out: Tracer bound
T12 construct: Full-length kinase ORF (Promega, Madison, WI, USA) cloned in frame with a NanoLuc-vector was transfected into HEK293T cells; host or cells: HEK293T
Method in brief: as §1

ERN1 = target: T13, ERN1 (Homo sapiens, UniProt O75460); type: binding; settings: 100% no effect, 0% complete tracer displacement, read-out: Tracer bound
T13 construct: Full-length kinase ORF (Promega, Madison, WI, USA) cloned in frame with a NanoLuc-vector was transfected into HEK293T cells; host or cells: HEK293T
T13 sequence (O75460 19-977): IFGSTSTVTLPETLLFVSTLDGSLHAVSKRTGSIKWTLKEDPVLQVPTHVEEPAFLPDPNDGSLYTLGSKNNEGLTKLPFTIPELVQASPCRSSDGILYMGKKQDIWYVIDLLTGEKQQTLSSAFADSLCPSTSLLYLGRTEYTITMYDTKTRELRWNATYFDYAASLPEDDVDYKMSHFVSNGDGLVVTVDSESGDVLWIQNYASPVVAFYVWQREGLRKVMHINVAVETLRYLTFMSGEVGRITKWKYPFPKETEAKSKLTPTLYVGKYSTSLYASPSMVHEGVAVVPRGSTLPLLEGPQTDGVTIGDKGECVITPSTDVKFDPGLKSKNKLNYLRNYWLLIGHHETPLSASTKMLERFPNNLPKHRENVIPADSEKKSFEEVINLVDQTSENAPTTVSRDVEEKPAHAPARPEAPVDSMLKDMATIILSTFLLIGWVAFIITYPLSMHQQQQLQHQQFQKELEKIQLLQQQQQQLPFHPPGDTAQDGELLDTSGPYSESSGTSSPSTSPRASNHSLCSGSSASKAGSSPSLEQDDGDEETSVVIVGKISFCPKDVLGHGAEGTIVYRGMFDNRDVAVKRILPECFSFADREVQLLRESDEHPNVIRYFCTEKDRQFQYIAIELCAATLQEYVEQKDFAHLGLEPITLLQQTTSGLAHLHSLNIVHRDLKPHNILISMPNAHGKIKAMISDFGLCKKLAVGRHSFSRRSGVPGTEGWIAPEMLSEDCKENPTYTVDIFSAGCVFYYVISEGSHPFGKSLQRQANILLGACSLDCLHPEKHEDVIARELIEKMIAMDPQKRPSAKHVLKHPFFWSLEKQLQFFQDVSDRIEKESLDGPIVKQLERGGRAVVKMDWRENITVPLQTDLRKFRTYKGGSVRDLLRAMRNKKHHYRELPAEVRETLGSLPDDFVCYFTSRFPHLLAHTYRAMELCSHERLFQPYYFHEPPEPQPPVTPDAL
Method in brief: as §1

RET = target: T14, RET (Homo sapiens, UniProt P07949); type: binding; settings: 100% no effect, 0% complete tracer displacement, read-out: Tracer bound
T14 construct: Full-length kinase ORF (Promega, Madison, WI, USA) cloned in frame with a NanoLuc-vector was transfected into HEK293T cells; host or cells: HEK293T
Method in brief: as §1

AURKA = target: T15, AURKA (Homo sapiens, UniProt O14965); type: binding; settings: 100% no effect, 0% complete tracer displacement, read-out: Tracer bound
T15 construct: Full-length kinase ORF (Promega, Madison, WI, USA) cloned in frame with a NanoLuc-vector was transfected into HEK293T cells; host or cells: HEK293T
Method in brief: as §1

PRKCD-PMA = target: T16, PRKCD-PMA (Homo sapiens, UniProt Q05655); type: binding; settings: 100% no effect, 0% complete tracer displacement, read-out: Tracer bound
T16 construct: Full-length kinase ORF (Promega, Madison, WI, USA) cloned in frame with a NanoLuc-vector was transfected into HEK293T cells; host or cells: HEK293T
Method in brief: as §1

MAP4K1 = target: T17, MAP4K1 (Homo sapiens, UniProt Q92918); type: binding; settings: 100% no effect, 0% complete tracer displacement, read-out: Tracer bound
T17 construct: Full-length kinase ORF (Promega, Madison, WI, USA) cloned in frame with a NanoLuc-vector was transfected into HEK293T cells; host or cells: HEK293T
Method in brief: as §1

CDK2-CCNE1 = target: T18, CDK2-CCNE1 (Homo sapiens, UniProt P24941); type: binding; settings: 1 µM; 100% no effect, 0% complete tracer displacement
T18 construct: Full-length kinase ORF (Promega, Madison, WI, USA) cloned in frame with a NanoLuc-vector was transfected into HEK293T cells; host or cells: HEK293T
Method in brief: as §1

EPHA4 = EPHA4 (Homo sapiens, UniProt P54764); settings: read-out: Tracer bound
Sequence of EPHA4 (P54764 20-986): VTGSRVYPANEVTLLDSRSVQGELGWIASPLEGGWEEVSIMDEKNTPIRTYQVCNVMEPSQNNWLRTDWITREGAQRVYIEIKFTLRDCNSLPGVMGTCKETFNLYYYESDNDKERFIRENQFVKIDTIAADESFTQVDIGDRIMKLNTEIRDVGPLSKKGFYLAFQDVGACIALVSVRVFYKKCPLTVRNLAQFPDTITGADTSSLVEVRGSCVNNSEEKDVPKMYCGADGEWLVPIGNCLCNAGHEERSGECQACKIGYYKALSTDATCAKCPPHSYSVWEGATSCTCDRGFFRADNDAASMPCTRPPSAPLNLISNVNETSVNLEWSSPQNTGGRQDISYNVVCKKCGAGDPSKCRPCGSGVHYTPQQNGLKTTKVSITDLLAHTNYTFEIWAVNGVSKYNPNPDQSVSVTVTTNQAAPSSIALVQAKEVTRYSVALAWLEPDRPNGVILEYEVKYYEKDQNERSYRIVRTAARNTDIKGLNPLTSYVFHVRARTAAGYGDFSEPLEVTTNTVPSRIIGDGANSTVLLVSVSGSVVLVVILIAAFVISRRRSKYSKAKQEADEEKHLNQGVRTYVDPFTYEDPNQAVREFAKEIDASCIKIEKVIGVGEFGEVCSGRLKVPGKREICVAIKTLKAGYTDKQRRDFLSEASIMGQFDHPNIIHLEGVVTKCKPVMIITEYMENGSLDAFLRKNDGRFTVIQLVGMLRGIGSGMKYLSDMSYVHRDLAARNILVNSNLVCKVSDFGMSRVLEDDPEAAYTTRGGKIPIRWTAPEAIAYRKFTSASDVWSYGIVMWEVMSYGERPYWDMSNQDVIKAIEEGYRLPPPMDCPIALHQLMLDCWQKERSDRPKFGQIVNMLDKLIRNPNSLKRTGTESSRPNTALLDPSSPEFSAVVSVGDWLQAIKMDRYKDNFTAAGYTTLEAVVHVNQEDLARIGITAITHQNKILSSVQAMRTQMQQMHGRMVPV

EPHA2 = EPHA2 (Homo sapiens, UniProt P29317); settings: read-out: Tracer bound
CAMK1D = target: T19, CAMK1D (Homo sapiens, UniProt Q8IU85); type: binding; settings: 100% no effect, 0% complete tracer displacement, read-out: Tracer bound
T19 construct: Full-length kinase ORF (Promega, Madison, WI, USA) cloned in frame with a NanoLuc-vector was transfected into HEK293T cells; host or cells: HEK293T

STK17B = target: T20, STK17B (Homo sapiens, UniProt O94768); type: binding; settings: 100% no effect, 0% complete tracer displacement, read-out: Tracer bound
T20 construct: Full-length kinase ORF (Promega, Madison, WI, USA) cloned in frame with a NanoLuc-vector was transfected into HEK293T cells; host or cells: HEK293T

LTK = LTK (Homo sapiens, UniProt P29376); settings: read-out: Tracer bound
SRC = SRC (Homo sapiens, UniProt P12931); settings: read-out: Tracer bound
Sequence of SRC (P12931 whole entry): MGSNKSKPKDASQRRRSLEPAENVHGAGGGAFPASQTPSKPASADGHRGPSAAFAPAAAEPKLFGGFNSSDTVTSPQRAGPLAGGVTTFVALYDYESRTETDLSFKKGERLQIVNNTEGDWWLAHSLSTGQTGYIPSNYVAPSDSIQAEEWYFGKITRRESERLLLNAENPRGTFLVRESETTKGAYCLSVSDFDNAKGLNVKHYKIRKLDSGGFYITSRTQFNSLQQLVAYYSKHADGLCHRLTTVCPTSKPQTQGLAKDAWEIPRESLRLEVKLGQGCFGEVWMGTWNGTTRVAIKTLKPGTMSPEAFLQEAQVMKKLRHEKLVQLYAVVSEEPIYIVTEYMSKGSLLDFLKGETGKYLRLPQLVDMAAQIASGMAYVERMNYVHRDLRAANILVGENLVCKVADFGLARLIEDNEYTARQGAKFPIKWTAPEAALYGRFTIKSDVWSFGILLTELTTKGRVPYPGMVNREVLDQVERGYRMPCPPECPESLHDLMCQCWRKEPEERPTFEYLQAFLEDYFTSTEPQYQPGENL

| SMILES | Tracer bound (EPHA5) [%] | remaining activity at 1 µM (ABL1) [%] | remaining activity at 1 µM (TESK1) [%] | remaining activity at 1 µM (GSK3A) [%] | remaining activity at 1 µM (EPHB1) [%] | remaining activity at 1 µM (YES1) [%] | remaining activity at 1 µM (CAMK1) [%] | remaining activity at 1 µM (EPHB4) [%] | remaining activity at 1 µM (MUSK) [%] | remaining activity at 1 µM (FGFR4) [%] | remaining activity at 1 µM (PHKG1) [%] | remaining activity at 1 µM (FGFR1) [%] | remaining activity at 1 µM (NEK9) [%] | remaining activity at 1 µM (WEE2) [%] | remaining activity at 1 µM (MAP4K5) [%] | Tracer bound (ULK3v1) [%] | remaining activity at 1 µM (BRSK1) [%] | remaining activity at 1 µM (ERN1) [%] | remaining activity at 1 µM (RET) [%] | remaining activity at 1 µM (AURKA) [%] | other results |
| --- | --- | --- | --- | --- | --- | --- | --- | --- | --- | --- | --- | --- | --- | --- | --- | --- | --- | --- | --- | --- | --- |
| CNC(=O)c1cc(Oc2ccc(NC(=O)Nc3cc(C(C)(C)C)on3)cc2)ccn1 [MA68, reference compound] | 41.1 | 71.8 | 102 | 95.9 | 27.7 | 77.1 | 100 | 3.8 | 6 | 86.5 | 87.3 | 69.2 | 109 | 102 | 96.3 | 96.1 | 106 | 117 | 3.8 | 120 | remaining activity at 1 µM (PRKCD-PMA): 113%; remaining activity at 1 µM (MAP4K1): 101%; Tracer bound (CDK2-CCNE1): 96.0%; remaining activity at 1 µM (EPHA4): 33.7%; remaining activity at 1 µM (EPHA2): 10.6%; remaining activity at 1 µM (CAMK1D): 102%; remaining activity at 1 µM (STK17B): 102%; remaining activity at 1 µM (LTK): 102%; remaining activity at 1 µM (SRC): 120% |
| Cc1ncsc1-c1ccc([C@H](C)NC(=O)[C@@H]2C[C@@H](O)CN2C(=O)[C@@H](NC(=O)[C@H]2CC[C@H](C(=O)N3CCN(CCNC(=O)c4cc(Oc5ccc(NC(=O)Nc6cc(C(C)(C)C)on6)cc5)ccn4)CC3)CC2)C(C)(C)C)cc1 [MA191, 4-(4-(3-(5-(tert-Butyl)isoxazol-3-yl)ureido)phenoxy)-N-(2-(4-(trans-4-(((S)-1-((2S,4R)-4-hydroxy-2-(((S)-1-(4-(4-methylthiazol-5-yl)phenyl)ethyl)carbamoyl)pyrrolidin-1-yl)-3,3-dimethyl-1-oxobutan-2-yl)carbamoyl)cyclohexanecarbonyl)piperazin-1-yl)ethyl)picolinamide] | 120.0 | 105 | 116 | 118 | 85.1 | 120 | 93.6 | 120 | 66 | 92.7 | 93.5 | 103 | 109 | 99.3 | 94 | 107.8 | 107 | 116 | 83.5 | 120 | remaining activity at 1 µM (PRKCD-PMA): 115%; remaining activity at 1 µM (MAP4K1): 105%; Tracer bound (CDK2-CCNE1): 102.5%; remaining activity at 1 µM (EPHA4): 118%; remaining activity at 1 µM (EPHA2): 104%; remaining activity at 1 µM (CAMK1D): 85.4%; remaining activity at 1 µM (STK17B): 92.4%; remaining activity at 1 µM (LTK): 101%; remaining activity at 1 µM (SRC): 120% |
